The source of these data is patent US7195769B2, “Pharmaceutical compositions of anti-tubercular drugs and process for their preparation” (Panacea Biotec Limited, priority 2000, dated 2007).

The series can be described thus: pH dependence of rifampicin degradation in presence of isoniazid. Format: physicochemical. An excerpt:
Thereafter, above pH 3 the degradation is minimal.

Take `CO[C@H]1/C=C/O[C@@]2(C)Oc3c(C)c(O)c4c(O)c(c(/C=N/N5CCN(C)CC5)c(O)c4c3C2=O)NC(=O)/C(C)=C\C=C\[C@H](C)[C@H](O)[C@@H](C)[C@@H](O)[C@@H](C)[C@H](OC(C)=O)[C@@H]1C` [rifampicin]: the “degradation of rifampicin in presence of isoniazid” value is “minimal” (above pH 3); “minimum” (pH around 1); “increases abruptly” (pH between 2 and 3).
